Laboratory results from patent publication US8461336B2, “Boron-containing small molecules” (Anacor Pharmaceuticals, Inc., priority 2008, dated 2013).
Counter-ions that a name gives are not always drawn.

Assays:
[1] = target: T1, ROCK1 (Homo sapiens, UniProt Q13464); experiment: Kinase assay ROCK1 ([gamma-33P]ATP, S6 kinase peptide substrate); assay type: biochemical; conditions: 20 nM recombinant human ROCK1 catalytic domain, room temperature
T1 construct: Catalytic Domain (amino acids 1-535); GST; purchased Reaction Biology Corp., Malvern, Pa; host or cells: insect cells
Experimental: (§1) The kinase assays were performed at room temperature using 20 nM ROCK1 or ROCK2 enzyme and 20 uM peptide substrate, [gamma-^33P]ATP, and drug concentration were varied. The ROCK1 enzyme is recombinant human protein, Catalytic Domain (amino acids 1-535) (Reaction Biology Corp., Malvern, Pa.), GST-tagged, expressed in insect cells. MW=[…]. The ROCK2 enzyme is recombinant human protein (amino acids 11-552), N-terminal histidine-tagged, expressed in insect cells, MW=63.3 kDa (Reaction Biology Corp., Malvern, Pa.). The substrate was a peptide derived from S6 kinase peptide for both ROCK1 & 2 assays; [[…]], Mw=3630 Da (Reaction Biology Corp., Malvern, Pa.). The reaction buffer contained 20 mM HEPES-HCl, pH 7.5, 10 mM MgCl2, 1 mM EGTA, 0.02% Brij35, 0.1 mM Na3VO4, 0.02 mg/ml BSA, 2 mM DTT, and 1% DMSO. Enzyme/substrate/drug mixture were added and incubated for 20 min to ensure compound was equilibrated and bound to the enzyme. Then concentrations of ATP were added to initiate the reaction. The activity was monitored by filter plate capture of the radioactive peptide using ion exchange filtration (P81, Whatmann) and washed extensively. The reactions were monitored every 5-15 min to obtain progress curve with time course. At each time point, radioisotope signal (“P) was converted into “uM phosphate transferred to substrate”, and was plotted against time. The initial linear slope of progress curve was obtained by linear regression. The slopes (or velocity; uM/min) were then plotted against ATP concentrations for Michaelis-Menten plot, and subsequent Lineweaver-Burk plot (double-reciprocal plot) and secondary plot, using GraphPad Prism software.

[2] = target: T2, ROCK2 (Homo sapiens, UniProt O75116); experiment: Kinase assay ROCK2 ([gamma-33P]ATP, S6 kinase peptide substrate); assay type: biochemical; conditions: 20 nM recombinant human ROCK2, room temperature
T2 construct: recombinant human protein (amino acids 11-552); His (N); purchased Reaction Biology Corp., Malvern, Pa; host or cells: insect cells
Experimental: as §1

[3] = test system: TNF-α; experiment: Cytokine assay, LPS-induced TNF-α in human PBMC; assay type: cell-based; conditions: 1 μg/mL LPS, supernatant at 24 hours
Experimental: The ability of the compounds described herein to inhibit pro-inflammatory cytokines or phosphodiesterases were tested.
Frozen human peripheral blood mononucleocytes (PBMC) were thawed and centrifuged. Cryopreservation media was aspirated off of the cell pellet, and the cells were resuspended in fresh culture media (CM) comprising RPMI 1640 and 10% FBS in 96 well plates. Test article was dissolved in DMSO to form a 10 mM sample (DMSO, 100%). The 10 mM samples were diluted to 100 μM in CM (DMSO, 1%), then further diluted to 10, 1, 0.1, 0.01 μM in 200 μL of CM (n=3). […] IL-23 was assayed using a commercial ELISA kit (R&D Systems).

[4] = target: K-ATP channel; conditions: example given in the text for K-ATP channel modulation; cited from earlier work

T2 sequence (O75116 11-552): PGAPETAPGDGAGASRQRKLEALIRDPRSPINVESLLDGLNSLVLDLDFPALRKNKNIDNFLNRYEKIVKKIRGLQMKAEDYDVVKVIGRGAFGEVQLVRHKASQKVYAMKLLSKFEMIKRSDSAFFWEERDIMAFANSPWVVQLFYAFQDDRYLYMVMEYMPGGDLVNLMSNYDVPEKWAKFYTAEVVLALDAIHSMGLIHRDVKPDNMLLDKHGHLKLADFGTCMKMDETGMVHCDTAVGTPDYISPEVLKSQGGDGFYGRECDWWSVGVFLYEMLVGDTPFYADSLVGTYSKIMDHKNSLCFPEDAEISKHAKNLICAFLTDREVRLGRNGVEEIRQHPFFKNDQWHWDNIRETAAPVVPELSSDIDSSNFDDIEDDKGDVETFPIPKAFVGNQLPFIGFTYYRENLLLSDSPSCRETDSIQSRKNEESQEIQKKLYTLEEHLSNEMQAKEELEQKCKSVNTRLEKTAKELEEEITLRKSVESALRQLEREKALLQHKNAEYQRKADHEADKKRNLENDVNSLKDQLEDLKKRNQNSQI
T1 sequence (Q13464 1-535): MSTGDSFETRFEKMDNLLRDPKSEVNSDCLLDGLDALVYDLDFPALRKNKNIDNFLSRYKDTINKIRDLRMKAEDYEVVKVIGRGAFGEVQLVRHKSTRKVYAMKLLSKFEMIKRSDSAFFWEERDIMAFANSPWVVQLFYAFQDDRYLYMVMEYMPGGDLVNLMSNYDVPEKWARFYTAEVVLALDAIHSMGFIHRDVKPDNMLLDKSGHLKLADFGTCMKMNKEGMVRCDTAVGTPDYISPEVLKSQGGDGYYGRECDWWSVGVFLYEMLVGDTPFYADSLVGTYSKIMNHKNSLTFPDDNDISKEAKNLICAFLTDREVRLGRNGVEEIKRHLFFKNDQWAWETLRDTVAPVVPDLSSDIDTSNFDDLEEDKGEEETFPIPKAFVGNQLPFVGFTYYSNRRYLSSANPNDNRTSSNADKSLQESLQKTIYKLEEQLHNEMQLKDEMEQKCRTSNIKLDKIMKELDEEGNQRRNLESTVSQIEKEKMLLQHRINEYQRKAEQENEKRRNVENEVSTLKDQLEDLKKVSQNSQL

SMILES	melting point [°C]	IC50 [1] [µM]	IC50 [2] [µM]	IC50 [3] [µM]	pKi [4]
NCc1ccc(Oc2ccc3c(c2)B(O)OC3)cc1 (as salt: chloride) [(4-(1-hydroxy-1,3-dihydrobenzo[c][1,2]oxaborol-6-yloxy)phenyl)methanaminium chloride]	> 230	–	–	–	–
NCc1ccc(Oc2ccc3c(c2)B(O)OC3)cc1 [T, (4-(1-hydroxy-1,3-dihydrobenzo[c][1,2]oxaborol-6-yloxy)phenyl)methanaminium chloride]	–	8.1	3.1	–	–
NCc1cccc(Oc2ccc3c(c2)B(O)OC3)c1 [U, (3-(1-hydroxy-1,3-dihydrobenzo[c][1,2]oxaborol-6-yloxy)phenyl)methanaminium chloride]	–	69.5	40.2	–	–
NCc1ccc(Oc2ccc3c(c2)B(O)OC3)c(F)c1 [W]	–	2.44	0.86	0.019	–
CC1=NS(=O)(=O)c2cc(Cl)ccc2N1 [diazoxide]	–	–	–	–	3.8

More lines, main results first:

melting point [°C]	IC50 [1] [µM]	IC50 [2] [µM]	SMILES	IC50 [3] [µM]	pKi [4]
–	25.1	10.1	NCc1ccc(Oc2ccc3c(c2)COB3O)cc1 [V, (4-(1-hydroxy-1,3-dihydrobenzo[c][1,2]oxaborol-5-yloxy)phenyl)methanaminium chloride]	–	–
–	4.75	2.11	NCc1ccc(Oc2ccc3c(c2)B(O)OC3)c(Cl)c1 [X]	–	–
–	18.1	9.09	N#Cc1ccc(Oc2ccc3c(c2)COB3O)nc1OC1CCCC1 [Z, 2-Cyclopentyloxy-6-(1-hydroxy-1,3-dihydro-benzo[c][1,2]oxaborol-5-yloxy)-nicotinonitrile]	–	–
